Test system: E. coli SugE guanidine-II riboswitch aptamer, 47mer FRET construct (C1G) (RNA, riboswitch, 5-aminoallyl-uridine at 3 (dye conjugated)) GUUUGCAGGACGACCUGCAAACGCCUCUUUUCACCGGGGACGGCCCC
Experiment: smFRET histograms, immobilised RNA (kissing-loop state population)
Details: Mg2+ 1 mM, 50 mM Tris/Cl pH 7.4, 22 °C, imaging buffer, 30 nM-30 mM ligand

Structure (SMILES)	binding (K-state 66% at 30 mM)	binding (K-state 66% at 30 mM buffer, highest tested 30 mM, no K-state shift, RNA destabilised (U-state 35%))
N=C(N)N	yes	–
NC(N)=O	–	no

Source: article PMC9094411 (2022)
